Source: PubChem BioAssay (NCI)
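GI50: concentration for 50% inhibition of growth. The concentration for full growth arrest is given as TGI.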

How the values were obtained:
Experiment in all cases: DTP human tumour cell line panel, 384-well format
RPMI-8226 leukemia = system: RPMI-8226 leukemia
BT-549 breast = system: BT-549 breast
NCI-H23 lung = system: NCI-H23 lung
COLO 205 colon = system: COLO 205 colon
MDA-MB-231 breast = system: MDA-MB-231 breast
CCRF-CEM leukemia = system: CCRF-CEM leukemia
SK-MEL-28 melanoma = system: SK-MEL-28 melanoma
SK-MEL-5 melanoma = system: SK-MEL-5 melanoma
MOLT-4 leukemia = system: MOLT-4 leukemia
PC-3 prostate = system: PC-3 prostate
IGROV1 ovarian = system: IGROV1 ovarian
NCI-H522 lung = system: NCI-H522 lung
T-47D breast = system: T-47D breast
OVCAR-3 ovarian = system: OVCAR-3 ovarian
HOP-92 NSCLC = system: HOP-92 NSCLC
K-562 leukemia = system: K-562 leukemia
TK-10 renal = system: TK-10 renal
HCC-2998 colon = system: HCC-2998 colon
786-0 renal = system: 786-0 renal
SF-295 CNS = system: SF-295 CNS
SF-539 CNS = system: SF-539 CNS
HCT-116 colon = system: HCT-116 colon
M14 melanoma = system: M14 melanoma
UACC-62 melanoma = system: UACC-62 melanoma
MDA-MB-435 melanoma = system: MDA-MB-435 melanoma
OVCAR-4 ovarian = system: OVCAR-4 ovarian
SNB-75 CNS = system: SNB-75 CNS
NCI-H322M lung = system: NCI-H322M lung
HCT-15 colon = system: HCT-15 colon
SK-OV-3 ovarian = system: SK-OV-3 ovarian

**Q.** Which results are given for Cc1cc(C(=O)Nc2nc3cccc(Cl)c3n2[C@@H]2CCCCN(C(=O)/C=C/CN(C)C)C2)ccn1?
**A.** TGI (RPMI-8226 leukemia): 3.77 µM; GI50 (BT-549 breast): 2.66 µM; TGI (BT-549 breast): 9.69 µM; GI50 (NCI-H23 lung): 2.83 µM; TGI (NCI-H23 lung): 10.5 µM; GI50 (COLO 205 colon): 4.23 µM; TGI (COLO 205 colon): 15.6 µM; GI50 (MDA-MB-231 breast): 4.34 µM; TGI (MDA-MB-231 breast): 17 µM; GI50 (CCRF-CEM leukemia): 1.56 µM; TGI (CCRF-CEM leukemia): 2.98 µM; GI50 (SK-MEL-28 melanoma): 7.02 µM; TGI (SK-MEL-28 melanoma): 20.1 µM; GI50 (SK-MEL-5 melanoma): 1.71 µM; TGI (SK-MEL-5 melanoma): 4.83 µM; GI50 (MOLT-4 leukemia): 1.4 µM; TGI (MOLT-4 leukemia): 2.72 µM; GI50 (PC-3 prostate): 3.45 µM; TGI (PC-3 prostate): 14.3 µM; GI50 (IGROV1 ovarian): 0.697 µM; TGI (IGROV1 ovarian): 2.79 µM; GI50 (NCI-H522 lung): 0.12 µM; TGI (NCI-H522 lung): 2.07 µM; GI50 (T-47D breast): 2.65 µM; TGI (T-47D breast): 17.3 µM; GI50 (OVCAR-3 ovarian): 1.46 µM; TGI (OVCAR-3 ovarian): 4.15 µM; GI50 (HOP-92 NSCLC): 2.93 µM; TGI (HOP-92 NSCLC): 13.9 µM; GI50 (K-562 leukemia): 3.03 µM; TGI (K-562 leukemia): 12.4 µM; GI50 (TK-10 renal): 0.494 µM; TGI (TK-10 renal): 7.41 µM; GI50 (HCC-2998 colon): 2.44 µM; TGI (HCC-2998 colon): 6.43 µM; GI50 ([…]-0 renal): 2.98 µM; TGI (786-0 renal): 13.1 µM; GI50 (SF-295 CNS): 4.09 µM; TGI (SF-295 CNS): 14.5 µM; GI50 (SF-539 CNS): 3.23 µM; TGI (SF-539 CNS): 11 µM; GI50 (HCT-116 colon): 3.17 µM; TGI (HCT-116 colon): 10.9 µM; GI50 (M14 melanoma): 2.75 µM; TGI (M14 melanoma): 11.5 µM; GI50 (UACC-62 melanoma): 3.62 µM; TGI (UACC-62 melanoma): 14.1 µM; GI50 (MDA-MB-435 melanoma): 3.35 µM; TGI (MDA-MB-435 melanoma): 12.3 µM; GI50 (OVCAR-4 ovarian): 3.56 µM; TGI (OVCAR-4 ovarian): 14.7 µM; GI50 (SNB-75 CNS): 5.5 µM; TGI (SNB-75 CNS): 17.9 µM; GI50 (NCI-H322M lung): 0.367 µM; TGI (NCI-H322M lung): 10.1 µM; GI50 (HCT-15 colon): 2.73 µM; TGI (HCT-15 colon): 10.7 µM; GI50 (SK-OV-3 ovarian): 0.928 µM; TGI (SK-OV-3 ovarian): 10.2 µM
